The values that follow come from BindingDB's records for doi:10.1016/0014-2999(95)00786-5 (Cnrs Upr 9023, 1996).

Several values for one entry are separate records, joined by “and”; a condition that tells them apart may be missing. Equal values may be shown once. Where a name gives a salt, the structure may show the parent alone.

The target in experiment [1] is 5-hydroxytryptamine receptor 4 (Mus musculus, UniProt P97288).
For experiment [2], the target named is 5-hydroxytryptamine receptor 4 (Homo sapiens, UniProt Q13639).
Chain of 5-hydroxytryptamine receptor 4 (Homo sapiens, UniProt Q13639) (Q13639 whole entry): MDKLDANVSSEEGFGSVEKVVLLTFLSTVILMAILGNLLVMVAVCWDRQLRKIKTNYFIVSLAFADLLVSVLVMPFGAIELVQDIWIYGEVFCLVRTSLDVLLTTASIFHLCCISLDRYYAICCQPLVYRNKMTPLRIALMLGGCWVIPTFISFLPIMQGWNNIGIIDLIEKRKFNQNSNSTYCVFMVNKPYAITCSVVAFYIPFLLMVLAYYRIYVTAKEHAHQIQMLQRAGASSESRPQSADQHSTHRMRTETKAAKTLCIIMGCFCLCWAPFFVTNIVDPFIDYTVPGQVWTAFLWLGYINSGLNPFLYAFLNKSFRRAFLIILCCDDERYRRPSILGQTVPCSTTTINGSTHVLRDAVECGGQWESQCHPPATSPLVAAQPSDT

Chain of 5-hydroxytryptamine receptor 4 (Mus musculus, UniProt P97288) (P97288 whole entry): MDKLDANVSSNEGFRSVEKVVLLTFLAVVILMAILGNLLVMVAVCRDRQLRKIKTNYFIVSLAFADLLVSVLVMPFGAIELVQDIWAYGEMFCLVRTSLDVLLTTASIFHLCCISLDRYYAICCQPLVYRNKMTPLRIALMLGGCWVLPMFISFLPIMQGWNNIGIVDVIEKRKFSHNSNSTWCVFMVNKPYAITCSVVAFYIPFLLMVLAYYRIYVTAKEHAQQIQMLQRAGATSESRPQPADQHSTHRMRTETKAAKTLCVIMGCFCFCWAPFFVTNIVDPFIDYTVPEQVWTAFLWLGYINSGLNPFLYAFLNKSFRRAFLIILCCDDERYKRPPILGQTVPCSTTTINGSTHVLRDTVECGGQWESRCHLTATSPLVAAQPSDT

What is called Ki is the equilibrium dissociation constant of an inhibitor or competing ligand from its target. Consider `COc1cc(N)c(Cl)cc1C(=O)NC1CCN(CCCOc2ccc(F)cc2)CC1OC` (stereo not drawn) [4-amino-5-chloro-N-(1-(3-(4-fluorophenoxy)propyl)-3-methoxypiperidin-4-yl)-2-methoxybenzamide], for which the affinity in experiment [1] corresponds to a Ki of 51.3 nM.

Turning to `CCN(CC)CCOC(=O)c1cc(Cl)c(N)cc1OC` [SDZ-205557], the inhibition constant Ki in experiment [1] and in experiment [2] was 6.3 nM in each case.

Turning to `CN1C2CCC1CC(OC(=O)c1c[nH]c3ccccc13)C2` (stereo not drawn), the Ki was 158 nM in experiment [1] and 200 nM in experiment [2].

In turn, `CCCC[N+]12CCC(C1)C(NC(=O)c1cc(Cl)c(N)cc1OC)CC2` (stereo not drawn) [SB205149] yielded a Ki in experiment [1] of 37.1 nM.

As to `CCN(CC)CCNC(=O)c1cc(Cl)c(N)cc1OC` [4-amino-5-chloro-N-[2-(diethylamino)ethyl]-2-methoxy-benzamide;hydrochloride], in experiment [1], affinity was put at a Ki of 3980 nM.

`NCCc1c[nH]c2ccc(O)cc12` [[3H]-5-HT]: affinity in experiment [1] was put at a Ki of 79.4 nM.

As to `CC(C)n1c(=O)n(C(=O)NC2C[C@H]3CC[C@@H](C2)N3C)c2ccccc21` (stereo partly drawn) [BIMU 8], the Ki in experiment [1] worked out at 25.1 nM; in experiment [2], 79.4 nM.

On to `COc1cc(N)c(Cl)cc1C(=O)NC1CCN2CCCC1C2` (stereo not drawn) [NSC_3035240], for which the Ki in experiment [1] came out at 97.7 nM.

In experiment [1], `COc1cc(N)c(Cl)cc1C(=O)NC1CCN(Cc2ccccc2)CC1` [4-Amino-N-(1-benzyl-piperidin-4-yl)-5-chloro-2-methoxy-benzamide(Clebopride)] yielded a Ki of 53.7 nM.

On to `COc1ccc2[nH]c(=O)n(C(=O)OC3CC4CCC(C3)N4C)c2c1` (stereo not drawn) [DAU 6285], for which the Ki in experiment [1] was found to be 26.9 nM; in experiment [2], 63.1 nM.

Regarding `COc1cc(N)c(Cl)cc1C(=O)NC1CN2CCC1CC2` (stereo not drawn) [ZACOPRIDE,R], the Ki in experiment [1] is 1070 nM and 302 nM and 224 nM.

For the molecule `COc1ccc2[nH]cc(CCN)c2c1` [tryptamine, 5-Methoxy], the results for the Ki in experiment [1] and in experiment [2] were 525 nM and 501 nM, respectively.

For the molecule `COc1cc(N)c(Cl)cc1C(=O)NC1CCN(CCCC(=O)N2CCC(N(C)C)CC2)CC1OC` (stereo not drawn) [4-Amino-5-chloro-N-(1-{4-[4-(dimethylamino)-1-piperidinyl]-4-oxobutyl}-3-methoxy-4-piperidinyl)-2-methoxybenzamide], in experiment [1], the Ki is 1.38 nM.

Consider `Cn1cc(C(=O)OCC2CCN(CCNS(C)(=O)=O)CC2)c2ccccc21` [GR 113808], for which the affinity in experiment [1] corresponds to a Ki of 0.31 nM.

Take `CCn1c(=O)n(C(=O)NC2CC3CCC(C2)N3C)c2ccccc21` (stereo not drawn) [BIMU 1]: the inhibitory constant (Ki) in experiment [1] stood at 53.7 nM.

In turn, `COc1ccc2[nH]cc(C3=CCCNC3)c2c1` registered an inhibition constant (Ki) in experiment [1] of 603 nM.

Molecule `COc1[nH]c2ccc(F)cc2c1C(=O)OCC1CCN(CCNS(C)(=O)=O)CC1` [GR-125487] yielded a Ki in experiment [1] of 0.03 nM.

In turn, `CN1C2CCC1CC(NC(=O)n1c(=O)[nH]c3ccccc31)C2` (stereo not drawn) [DAU 6215] had a Ki in experiment [1] of 224 nM.
